Patent US11766413B2 (Nacuity Pharmaceuticals, Inc., priority 2019, dated 2023)
“Also recorded” adds a separate entry of the source.

What was measured:
[1] = Evaluation of retinal penetration of NACA: NACA and NAC levels in plasma, aqueous, vitreous and retina after NACA in drinking water; assay type: in vivo, mice (rd10/rd10 and wild type C57/BL6); details: for concentration at 7 days: mouse, retina, oral, 20 mg/mL in drinking water, 20 mg/mL NACA in drinking water, P28 to P35, estimated dose 60-80 mg/day; for mean levels in the retina compared with plasma / measurability in the retina: animals treated with NACA; for measurability in the retina: N=20 eyes per strain; for measurements in aqueous, vitreous and retina: nearly all measurements, limit of quantification of the assay
Method: Animals and Treatments. Mice were treated in accordance with the recommendations of the Association for Research in Vision and Ophthalmology. Litters of homozygous rd10/rd10 mice (B6.CXB1-Pde6brd10/J) and wild type C57/BL6 mice (The Jackson Laboratory, Bar Harbor, Me.) were used for these studies.
Starting on post-natal day 28 (P28), animals were given normal drinking water (n=10 for each strain) or water containing 20 mg/ml NACA (n=10 for each strain).
Analysis of NACA and NAC. Upon sacrifice of the mice on P35, retina, aqueous, vitreous and plasma were collected, weighed, and stabilized as quickly as possible and stored at −80° C. prior to shipment to AIT Bioscience, LLC (Indianapolis, Ind.). The bioanalytical method (BAM.0445.01) for the quantitation of total NAC NACA in K2EDTA was based on derivatization, protein precipitation extraction, and LC-MS/MS instrumental analysis. Any disulfides were reduced to free thiols and subsequently reacted with 2-chloro-1-methylpyridinium iodide (CMPI) to form stable thioethers. The thioether derivatives were detected by LC-MS/MS. Stable label isotope internal standards were used. The method covered a concentration range from 50.0 to 50,000 ng/mL. The thiol moiety of NAC, NACA, and their respective internal standards oxidizes quickly in plasma through formation of disulfides. In order to determine total NAC and total NACA levels in plasma, tris(2-carboxyethyl)phosphine (TCEP) is added during the extraction to reduce disulfide bonds. Ammonium bicarbonate is added to control sample pH near neutral, as TCEP will otherwise acidify the aliquoted samples and hinder derivatization. The free analyte is then derivatized to a stable thioether using 2-chloro-1-methylpyridinium iodide (CMPI). N-acetyl-L-cysteine is used as the reference standard. The assay would not discern the enantiomer, N-acetyl-D-cysteine, if present. A sample volume of 25.0 μL was aliquotted into a 1.2 mL 96-well plate to which was added, in sequence, 25.0 μL internal standard solution (1000 ng/mL NAC-D3 and 1000 ng/mL NACA-D3 in water), 50.0 μL of ammonium bicarbonate (100 mM), 5.0 μL CMPI (60 mM in water), and 5.0 μL of TCEP (60 mM in water). Samples were allowed to react for 30 minutes. To precipitate proteins, 500 μL of acetonitrile was then added to all samples. The plate was covered and the mixtures were shaken and centrifuged. A 50.0 μL aliquot of the supernatant was transferred from each well to a clean plate containing 400 μL of water-acetonitrile (25-75) in each well, and mixed well prior to LC-MS injection.
Samples were analyzed on a Waters Acquity liquid chromatograph interfaced with a Thermo Scientific TSQ Vantage triple quadrupole mass spectrometer with ESI ionization. Each extracted sample was injected (5.0 μL) onto a Waters BEH HILIC column (2.1×100 mm; 1.7 μm) equilibrated at 35° C. Mobile Phase A was ammonium formate (25 mM, pH 3.8). Mobile Phase B was acetonitrile. The LC gradient is tabled below: […]
Peak area ratios from the calibration standard responses were regressed using a (1/concentration^2) linear fit for N-Acetyl-L-Cysteine and N-Acetylcysteine amide.
Evaluation of Retinal Penetration of NACA. To determine retinal levels of NACA/NAC after administration of 20 mg/mL NACA in drinking water for 7 days. This experiment will provide rapid confirmation that NACA and/or NAC penetrate the retina following oral administration. This experiment will also evaluate if the breakdown in the blood-retinal barrier in RP affects the levels of NACA in the retina by comparing animals with RP to wild type mice.
Rd10 and C57BL/6 wild type mice will begin treatment at P28 and at P35 mice will be euthanized and plasma, vitreous and retina samples will be sent to AITB for determination of NAC and NACA levels. Experimental groups: (n=10/group). The research was performed in 3 discrete experiments: […]

[2] = humans, oral dose of 600 mg; cited from earlier work
[3] = test system: diabetic rats; details: cited from earlier work
[4] = biological target: T1, glutamate cysteine ligase (GCL, EC 6.3.2.2) (Homo sapiens, UniProt P48506); details: substrate of GCL; read-out: apparent Km; cited from earlier work
T1 sequence (P48506 1-637): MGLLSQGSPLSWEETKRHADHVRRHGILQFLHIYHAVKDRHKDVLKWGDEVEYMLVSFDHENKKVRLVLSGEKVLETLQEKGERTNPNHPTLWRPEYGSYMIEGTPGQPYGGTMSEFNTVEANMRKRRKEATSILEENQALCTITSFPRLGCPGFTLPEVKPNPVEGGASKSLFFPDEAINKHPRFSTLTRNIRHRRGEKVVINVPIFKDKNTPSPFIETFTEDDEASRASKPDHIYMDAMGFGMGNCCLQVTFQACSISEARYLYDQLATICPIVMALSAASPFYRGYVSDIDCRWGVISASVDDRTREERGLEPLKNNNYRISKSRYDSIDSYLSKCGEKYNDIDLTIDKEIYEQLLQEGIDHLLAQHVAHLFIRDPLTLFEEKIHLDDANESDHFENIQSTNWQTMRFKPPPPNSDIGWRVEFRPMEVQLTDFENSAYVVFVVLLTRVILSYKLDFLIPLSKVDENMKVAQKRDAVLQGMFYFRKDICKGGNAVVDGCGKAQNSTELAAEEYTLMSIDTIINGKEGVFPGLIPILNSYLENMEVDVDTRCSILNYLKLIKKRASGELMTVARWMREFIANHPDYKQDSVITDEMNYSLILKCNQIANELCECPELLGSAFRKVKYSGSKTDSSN
T1 sequence (P48507 1-274 partner): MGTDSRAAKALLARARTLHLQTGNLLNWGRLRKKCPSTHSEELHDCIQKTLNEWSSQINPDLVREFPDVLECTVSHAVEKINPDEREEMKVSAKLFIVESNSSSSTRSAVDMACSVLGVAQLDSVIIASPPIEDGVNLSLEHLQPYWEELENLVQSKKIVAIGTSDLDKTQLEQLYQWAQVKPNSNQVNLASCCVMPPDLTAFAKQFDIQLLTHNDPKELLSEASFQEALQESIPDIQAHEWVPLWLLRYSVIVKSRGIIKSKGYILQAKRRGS

[5] = 20 mg/ml NACA in drinking water

CC(=O)N[C@@H](CS)C(N)=O
mean levels in aqueous humor compared with plasma [1, 5]: lower than in plasma | mean levels in plasma, rd10 compared with wild type [1, 5]: greater in rd10 mice than in the wild type | concentration at 7 days ([1]; C57/BL6 (wild type), wild type mice): ~2400 ng/g | mean concentration in the aqueous humor, rd10 compared with wild type ([1]; N=8 eyes rd10, N=10 C57/B16): higher in rd10 mice than wild type | mean levels in the retina compared with plasma [1]: higher than those observed in plasma | measurability in the retina [1]: measurable in all animals | mean NACA levels in plasma compared with NAC levels ([1]; both strains, 20 mg/ml NACA in drinking water, N=10 per strain): greater than the NAC levels | measurements in aqueous, vitreous and retina [1]: BLQ | ratio of NACA:NAC in the retina, rd10 compared with C57/B16 ([1]; oral NACA 20 mg/mL in drinking water): penetrated retina to a greater extent in rd10 mice than in C57/B16 mice; also recorded: greater in the retina of rd10 mice than in C57/B16 mice | concentration at 7 days ([1]; rd10/rd10 (B6.CXB1-Pde6brd10/J), rd10 mice): ~6500 ng/g

CC(=O)N[C@@H](CS)C(=O)O [NAC, N-acetyl-L-cysteine, reference compound]
mean levels in aqueous humor compared with plasma [1, 5]: lower than in plasma | mean levels in plasma, rd10 compared with wild type [1, 5]: greater in rd10 mice than in the wild type | mean levels in the retina compared with plasma [1]: higher than those observed in plasma | measurability in the retina [1]: measurable in all animals | measurements in aqueous, vitreous and retina [1]: BLQ | time after administration at which no NAC is detectable [2]: 10 to 12 h | expression of VEGF and ICAM-1 ([3]; after 5-month treatment): returned to basal levels | up-regulation of VEGF and ICAM-1 expression in retinal blood vessels [3]: attenuated | reactive oxygen species contents in the retinas ([3]; most significantly at 5 months): decreased reactive oxygen species | retinal pathological changes (electron and light microscopy) ([3]; sacrificed at 3 and 5 months): alleviated the pathological changes

N[C@@H](CS)C(=O)O [cysteine, L-cysteine]
Km [4]: 100 to 300 µM
